Measurements published in patent publication US20150093333A1, “COMPOSITIONS, METHODS AND USES FOR PEPTIDES IN DIAGNOSIS, PROGRESSION AND TREATMENT OF CANCERS” (THE REGENTS OF THE UNIVERSITY OF COLORADO, body corporate, priority 2003, published 2015).

B1: C2AB: intact C2A-C2B cytoplasmic domains of rat Synaptotamin-1 (a.a. 96-421), positive control (protein, UniProt P21707 96-421, looked up, fragment)
chain: GGKNAINMKDVKDLGKTMKDQALKDDDAETGLTDGEEKEEPKEEEKLGKLQYSLDYDFQNNQLLVGIIQAAELPALDMGGTSDPYVKVFLLPDKKKKFETKVHRKTLNPVFNEQFTFKVPYSELGGKTLVMAVYDFDRFSKHDIIGEFKVPMNTVDFGHVTEEWRDLQSAEKEEQEKLGDICFSLRYVPTAGKLTVVILEAKNLKKMDVGGLSDPYVKIHLMQNGKRLKKKKTTIKKNTLNPYYNESFSFEVPFEQIQKVQVVVTVLDYDKIGKNDAIGKVFVGYNSTGAELRHWSDMLANPRRPIAQWHTLQVEEEVDAMLAVKK

Tests used:
synthetic lipid vesicles = experiment: Fluorescence enhancement assay of NBD-labeled MARCKS peptides with synthetic vesicles; type: binding; settings: FIG. 4B
Text: (§1) In another exemplary method, lipid vesicles were employed to the curvature-sensing behavior of the MARCKS derived peptides with various sizes and lipid components. The membrane curvature is defined as the reciprocal of the diameter of a particular particle, e.g., smaller-sized vesicles present highly curved membrane bilayers. A series of lipid models were made to represent various lipid components that closely resemble the lipid composition of biological membranes. […] Dynamic light scattering (DLS) and negative-stain transmission electron microscopy (TEM) were performed to confirm the different vesicle sizes following the pressure-controlled extrusion process through different membrane diameter pores. Commercial polystyrene beads were used as the calibration standard for the vesicle size validation experiments. Furthermore, a time-course experiment was carried out to confirm the stability of the vesicles up to 16 hours. Three different membrane diameters were extruded for the following biophysical characterizations: 30 nm, 100 nm, 400 nm, reflecting different membrane curvatures.
Next, a fluorescence enhancement assay was conducted to further quantify the curvature- and PS-sensing behavior of MARCKS-ED. Appropriate controls were performed to confirm that the fluorophore alone had no effect on the observed fluorescence enhancement (data not shown). FIG. 4 represents histogram data of fluorescence enhancement assay with and fluorescence anisotropy titration of the NBD labeled MARCKS derived peptides. Upon binding to lipid vesicles, the fluorescence intensity of NBD-MARCKS-ED increased due to vesicle binding and changes in the hydrophobic environment surrounding the fluorophore, concurring with a slight blue shift of the maximum emission wavelength. The emission spectra of all NBD-labeled peptides were recorded using a Fluorolog-3 fluorometer with λex=480 nm. The peptides and protein were tested at a concentration of 500 nM in PBS (pH 7.40) treated with 500 μM synthetic vesicles of different vesicles sizes. […] The positive control C2AB (200 nM) from the rat Synaptotagmin-1 (Syn-1) protein (G374, residues 96-421) was treated with CaCl2 (2.5 mM) and observed with λex of 275 nm and emission range of 300-450 nm. The untreated peptide and Ca^2+-C2AB samples were corrected by the PBS (pH=7.40) blank solution for the peptides and PBS with Ca^2+ for the Ca^2+-C2AB sample. All samples were prepared and incubated overnight in 4° C.
FIG. 4A illustrates a histogram plot of fluorescence intensity of MARCKS-ED treated with lipid vesicles of various sizes. […] Last, the fluorescence intensity differences were less significant with vesicles containing no PS. […]

microvesicles in plasma = experiment: Nanoparticle tracking analysis of microvesicles in plasma from stressed rats treated with MARCKS peptides; type: binding, rat; settings: Alexa Fluor 546 labeled peptides 55 nM
Experimental: These isolated microvesicles were measured by nanoparticle tracking analysis (NTA) to confirm their average size (ø=56 nm). Tracking analyses were performed using the NanoSight LM10-HS instrument (Amesbury, UK) equipped with a 532 nm laser and observed at scatter and fluorescence modes (filter=550 nm). The instrument was calibrated using commercially available 50 nm polystyrene beads. […] Alexa Fluor 546™-labeled mouse anti-rat CD63 and unconjugated Alexa Fluor 546™ were used as positive and negative controls, respectively. The profiles of MARCKS-ED-Alexa Fluor 546™ and Alexa Fluor 546™ in the absence of microvesicles were also investigated to confirm that these show negligible scatter and fluorescence background signals under identical NTA conditions.
FIG. 5A represents fluorescence enhancement assay with MARCKS-ED incubated with the isolated microvesicles. Peptide MARCKS-ED ([…]) not treated with microvesicles was used as a negative control. Annexin-V (a positive control) and MARCKS-ED were incubated with the isolated rat microvesicles. Fluorescence was normalized to the negative control. […] The diameter size and particle count of the isolated microvesicles detected by MARCKS-ED was further quantified. Nanoparticle tracking analysis (NTA) uses a laser for scatter and fluorescence modes to track small particles by Brownian motion, providing a robust method for detecting nano-sized microvesicles. Under the fluorescence mode with the emission filter set for the Alexa Fluor 546™, the particles that bound to MARCKS-ED, MARCKSmut1, and MARCKSmut2peptides were observed.
FIG. 5B illustrates the results of NTA of microvesicles treated with MARCKS derived peptides. […] The untreated plasma samples were detected using the scatter mode and treated samples were monitored by tracking the fluorescence of Alexa Fluor 546™ conjugated to the MARCKS-ED MARCKSmut1 and MARCKSmut2 peptides. […] Furthermore, blank samples were performed to rule out possible artifacts of background fluorescence from the peptides, the vesicles and the unconjugated dye.

[1] = tested on: PS-exposing cell membranes; experiment: Fluorescence staining of PS-exposing membranes in dissected gonads of C. elegans; type: in vivo; settings: wild type (N2), tat-1(tm3117) and ced-7(n2094) animals
Experimental: Fluorescence staining assays were carried out in an acceptible C. elegans model with PS-exposing cell membranes. […] NBD-MARCKS-ED was used to stain the dissected gonads of wild type (N2) animals, tat-1(tm3117) mutant animals, and engulfment-deficient ced-7 (n2094) mutant animals, respectively. 36 hour old hermaphrodite adult animals were collected and gently dissected by cutting their heads in a depression slide with a gonad dissection buffer (previously presented) to expose the gonads. The exposed gonads were then washed once in the dissection buffer and transferred to a dissection buffer containing 4 μM of Hoechst 33342 and 20 μM of NBD labeled MARCKS-ED peptide, 20 μM NBD-MARCKSmut1 peptide, or 10 nM Alexa Fluor 488-conjugated Annexin-V for 45 minutes. Gonads were washed one more time in the dissection buffer, placed on a 5% agarose pad, and visualized using a Nomarski microscope equipped with an epifluorescence detector.
FIGS. 6A-6C illustrate exemplary staining results using MARCKS derived peptides and Annexin V. PS is typically kept in the inner leaflet of plasma membranes in living cells and is exposed on the cell surface only under certain cellular events, i.e., when cells undergo apoptosis or lose the ability to maintain the PS asymmetry with a tat-1 gene mutation. FIG. 6A represents the staining results with labeled MARCKS-ED in wild type and mutants C. elegans. […] FIG. 6B represents the staining results with labeled MARCKSmut1 in wild type and mutants C. elegans. […] In FIGS. 6A-6B, nuclei were stained with Hoechst 33342. Annexin-V, a known PS-sensor, was also used to stain the gonads of tat-1 and ced-7 mutant C. elegans. […] Hoechst33342 (4 μM), FITC-AnnexinV (10 nM) and Nomarski images are shown. […] Scale bar=10 μm.

[2] = tested on: lipid vesicles 60% POPC:15% cholesterol:15% POPE:10% POPS; experiment: Fluorescence anisotropy titration of NBD-labeled MARCKS peptides with lipid vesicles; type: binding; settings: FIG. 4D
Experimental: In another example, because fluorescence enhancement assays could not distinguish the contributions between different degrees of membrane penetration and binding affinity, fluorescence anisotropy assay was performed to specifically measure the binding affinity of the MARCKS derived peptides. The NBD-labeled peptides (1 μM) were titrated by synthetic liposomes of various sizes (30, 100, and 400 nm). Fluorescence anisotropy was recorded using a Fluorolog-3 fluorometer. The mixture was allowed to equilibrate for 2 minutes prior to the next titration. The excitation wavelength was set to λex=480 nm whereas the emission filter was set to λem=545 nm. The voltage was set to 250 V throughout the experiment. Blank PBS (pH=7.40) was titrated to NBD-labeled peptides as a negative control, where negligible anisotropy change was observed. The following equation was used to determine the dissociation constants as previously reported: Fb=Kp [L]/(1+KP[L]), where Fb expresses the fraction of peptide bound to lipids, Kp expresses the molar partition coefficient and [L] expresses the lipid concentration.
Lipid vesicles were titrated to NBD-labeled MARCKS-ED, MARCKSmut1, or MARCKSmut2 peptides. Since the peptide partitions between the hydrophobic lipid bilayer and the aqueous solvent, the molar partition coefficient is often reported. By definition, the apparent dissociation constant (Kd), described as the lipid concentration where 50% of the peptide is bound, is the reciprocal of the molar partition coefficient (Kp). Fluorescence anisotropy assay results indicated efficient curvature sensing by MARCKS-ED. FIG. 4C represents an exemplary fluorescence anisotropy titration of MARCKS-ED with various lipid vesicles. FIG. 4D provides data of fluoresence anisotropy titration of various MARCKS derived peptides. Lipid vesicles used in the experiments represented by FIGS. 4C-4D contained 60% POPC:15% cholesterol: 15% POPE: 10% POPS. […] As a comparison, C2AB illustrated a 1.9 fold increase in binding to smaller vesicles (105 nm) relative to the larger ones (252 nm). […] In addition, electrostatic interactions of MARCKSmut2 were also compromised. […] Such defects would permit the Phe residue to insert and stabilize the highly curved membranes.

29 nm liposomes = settings: with 29 nm liposomes; cited from earlier work
[3] = tested on: synthetic vesicles of sizes 100 nm and 400 nm; experiment: Cosedimentation assay of MARCKS-ED with synthetic vesicles; type: binding; settings: gel electrophoresis of supernatant and pellet
Text: as §1
In another exemplary method, a cosedimentation assay was performed to test the size differentiation behavior of MARCKS-ED. Two vesicle pore sizes, 100 and 400 nm, were used in this experiment because vesicles smaller than 100 nm were difficult to pellet even at high centrifugation speed. MARCKS-ED (10 μM) was incubated with 600 μM synthetic vesicles of sizes 100 nm and 400 nm. The positive control was the intact C2A-C2B cytoplasmic domains (C2AB) of rat Synaptotamin-1 (a.a. 96-421). C2AB (1.5 μM) was treated with CaCl2 (1 mM) and incubated with 300 μM synthetic vesicles of sizes 100 nm and 400 nm. C2AB treated with vesicles was incubated at room temperature for 30 minutes, followed by centrifugation of 65,000 rpm for 45 minutes at 20° C. MARCKS-ED treated with vesicles was incubated at room temperature for 2 hours, followed by 75,000 rpm for 45 minutes at 20° C. […]

lipid vesicles = settings: cited from earlier work

Row | Molecule | fluorescence enhancement and curvature sensing (synthetic lipid vesicles) | binding to microvesicles in whole plasma (NTA fluorescence mode) (microvesicles in plasma) | binding affinity [2] | fluorescence enhancement (29 nm liposomes) [RFU] | also measured
1 | KKKKKRASAKKSAKLSGASAKKNKK [MARCKSmut1, MARCKS-ED with the five Phe residues mutated to Ala] | significantly reduced fluorescence enhancement | some preferential binding to smaller vesicles but with much weaker fluorescence signal | greatly reduced binding affinity |  | staining of PS-exposed membranes [1]: did not appear to detect PS-exposed membranes in either tat-1 or ced-7 mutant animals
2 | AAAAAAFSFAASFALSGFSFAANAA [MARCKSmut2, MARCKS-ED with positively charged residues (Lys, Arg) mutated to Ala] | significantly reduced fluorescence enhancement | only negligible binding | compromised |  | 
3 | Golgi-microtubule-associated protein-2101-38: ALPS motif-bearing established curvature-sensing protein fragment (MSSWLGGLGSGLGQSLGQVGGSLASLTGQISNFTKDML; UniProt Q15643 1-38, looked up, fragment) |  |  |  | ~1.25 | 
4 | nuclear pore complex protein-133245-267: ALPS motif-bearing established curvature-sensing protein fragment (LPQGQGMLSGIGRKVSSLFGILS; UniProt Q8WUM0 245-267, looked up, fragment) |  |  |  | ~1.25 | 
5 | B1 |  |  |  |  | pull-down by 100 nm vs 400 nm PS-containing vesicles [3]: more MARCKS-ED or C2AB was pulled down by the 100 nm, PS-containing vesicles than by the larger 400 nm vesicles; Kd (lipid vesicles; 105 nm vesicles): 151 ± 6 µM; increase in binding to smaller vesicles (105 nm) relative to the larger ones (252 nm) (lipid vesicles): 1.9 fold
